Experimental data from patent US6737383B1, “Herbicidal oxadiazolidines” (priority 1999, dated 2004).

Tests used:
Settings in all cases: Preemergence
bedstraw = test: Test B pre/postemergence bedstraw; assay type: in vivo, Galium aparine
In short: (§1)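 Response is a visual 0-to-10 score relative to untreated plants, where 0 means no effect and 10 means complete control, taken twelve to sixteen days after application. Treatments went onto soil at planting and onto foliage of 1- to 4-leaf plants, using a surfactant-containing non-phytotoxic solvent.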

blackgrass = test: Test B pre/postemergence blackgrass; assay type: in vivo, Alopecurus myosuroides
Text: (§2) Seeds of bedstraw (Galium aparine), blackgrass (Alopecurus myosuroides), surinam grass (Brachiaria decumbens), cocklebur (Xanthium strumarium), corn (Zea mays), crabgrass (Digitaria sanguinalis), giant foxtail (Setaria faberii), morningglory (Ipomoea hederacea), pigweed (Amaranthus retroflexus), rape (Brassica napus), soybean (Glycine max), sugar beet (Beta vulgaris), velvetleaf (Abutilon theophrasti), wheat (Triticum aestivum), wild oat (Avena fatua) and purple nutsedge (Cyperus rotundus) tubers were planted and treated preemnergence with test chemicals formulated in a non-phytotoxic solvent mixture which included a surfactant.
(§3) At the same time, these crop and weed species were also treated with postemergence applications of test chemicals formulated in the same manner. Plants ranged in height from 2 to 18 cm (1- to 4-leaf stage) for postemergence treatments. Plant species in the flood test consisted of rice (Oryza sativa), smallflower flatsedge (Cyperus difformis), duck salad (Heteranthera limosa) and bamyardgrass (Echinochloa crus-galli) grown to the 2-leaf stage for testing. Treated plants and controls were maintained in a greenhouse for twelve to sixteen days, after which all species were compared to controls and visually evaluated. Plant response ratings, summarized in Table B, are based on a scale of 0 to 10 where 0 is no effect and 10 is complete control. A dash (−) response means no test result.

surinam grass = test: Test B pre/postemergence surinam grass; assay type: in vivo, Brachiaria decumbens
Text: as §2, §3

cocklebur = test: Test B pre/postemergence cocklebur; assay type: in vivo, Xanthium strumarium
Text: as §2, §3

corn = test: Test B pre/postemergence corn; assay type: in vivo, Zea mays
Text: as §2, §3

crabgrass = test: Test B pre/postemergence crabgrass; assay type: in vivo, Digitaria sanguinalis
Text: as §2, §3

giant foxtail = test: Test B pre/postemergence giant foxtail; assay type: in vivo, Setaria faberii
Text: as §2, §3

morningglory = test: Test B pre/postemergence morningglory; assay type: in vivo, Ipomoea hederacea
Text: as §2, §3

pigweed = test: Test B pre/postemergence pigweed; assay type: in vivo, Amaranthus retroflexus
In short: as §1

rape = test: Test B pre/postemergence rape; assay type: in vivo, Brassica napus
Text: as §2, §3

soybean = test: Test B pre/postemergence soybean; assay type: in vivo, Glycine max
Text: as §2, §3

sugar beet = test: Test B pre/postemergence sugar beet; assay type: in vivo, Beta vulgaris
In short: as §1

velvetleaf = test: Test B pre/postemergence velvetleaf; assay type: in vivo, Abutilon theophrasti
Text: as §2, §3

wheat = test: Test B pre/postemergence wheat; assay type: in vivo, Triticum aestivum
Text: as §2, §3

wild oat = test: Test B pre/postemergence wild oat; assay type: in vivo, Avena fatua
Text: as §2, §3

purple nutsedge = test: Test B pre/postemergence purple nutsedge; assay type: in vivo, Cyperus rotundus
Text: as §2, §3

[1] = Rate 62 g/ha, scale of 0 to 10 where 0 is no effect and 10 is complete control
[2] = Rate 125 g/ha, scale of 0 to 10 where 0 is no effect and 10 is complete control
[3] = Rate 250 g/ha, scale 0 (no effect) to 10 (complete control)
[4] = Rate 500 g/ha, scale 0 to 10 (0 no effect, 10 complete control)

C=C(Cn1c(=O)on(C(=O)N(c2ccc(F)cc2)C(C)C)c1=O)C(=O)OC [Compound 732]
0: Bedstraw plant response rating (bedstraw; [1]) | Plant response rating, Bedstraw (bedstraw; [2]) | Bedstraw plant response rating (bedstraw; [3]) | Bedstraw plant response rating (bedstraw; [4]) | Blackgrass plant response rating (blackgrass; [1]) | Plant response rating, Blackgrass (blackgrass; [2]) | Blackgrass plant response rating (blackgrass; [3]) | Blackgrass plant response rating (blackgrass; [4]) | B. signalgrass plant response rating (surinam grass; [1]) | Plant response rating, B. signalgrass (surinam grass; [2]) | B. signalgrass plant response rating (surinam grass; [3]) | B. signalgrass plant response rating (surinam grass; [4]) | Cocklebur plant response rating (cocklebur; [1]) | Plant response rating, Cocklebur (cocklebur; [2]) | Cocklebur plant response rating (cocklebur; [3]) | Cocklebur plant response rating (cocklebur; [4]) | Corn plant response rating (corn; [1]) | Plant response rating, Corn (corn; [2]) | Corn plant response rating (corn; [3]) | Corn plant response rating (corn; [4]) | Crabgrass plant response rating (crabgrass; [1]) | Plant response rating, Crabgrass (crabgrass; [2]) | Crabgrass plant response rating (crabgrass; [3]) | Crabgrass plant response rating (crabgrass; [4]) | Giant foxtail plant response rating (giant foxtail; [1]) | Plant response rating, Giant foxtail (giant foxtail; [2]) | Giant foxtail plant response rating (giant foxtail; [3]) | Giant foxtail plant response rating (giant foxtail; [4]) | Morningglory plant response rating (morningglory; [1]) | Plant response rating, Morningglory (morningglory; [2]) | Morningglory plant response rating (morningglory; [3]) | Morningglory plant response rating (morningglory; [4]) | Redroot pigweed plant response rating (pigweed; [1]) | Plant response rating, Redroot pigweed (pigweed; [2]) | Redroot pigweed plant response rating (pigweed; [3]) | Redroot pigweed plant response rating (pigweed; [4]) | Rape plant response rating (rape; [1]) | Plant response rating, Rape (rape; [2]) | Rape plant response rating (rape; [3]) | Rape plant response rating (rape; [4]) | Soybean plant response rating (soybean; [1]) | Plant response rating, Soybean (soybean; [2]) | Soybean plant response rating (soybean; [3]) | Soybean plant response rating (soybean; [4]) | Sugarbeets plant response rating (sugar beet; [1]) | Plant response rating, Sugarbeets (sugar beet; [2]) | Sugarbeets plant response rating (sugar beet; [3]) | Sugarbeets plant response rating (sugar beet; [4]) | Velvetleaf plant response rating (velvetleaf; [1]) | Plant response rating, Velvetleaf (velvetleaf; [2]) | Velvetleaf plant response rating (velvetleaf; [3]) | Velvetleaf plant response rating (velvetleaf; [4]) | Wheat plant response rating (wheat; [1]) | Plant response rating, Wheat (wheat; [2]) | Wheat plant response rating (wheat; [3]) | Wheat plant response rating (wheat; [4]) | Wild oats plant response rating (wild oat; [1]) | Plant response rating, Wild oats (wild oat; [2]) | Wild oats plant response rating (wild oat; [3]) | Wild oats plant response rating (wild oat; [4]) | Nutsedge plant response rating (purple nutsedge; [1]) | Nutsedge plant response rating (purple nutsedge; [3]) | Nutsedge plant response rating (purple nutsedge; [4])
